Assay results from patent US8404695B2, “Pyrimidinyl pyridone inhibitors of JNK” (Roche Palo Alto LLC, priority 2008, dated 2013).

Experiments:
Human JNK1α1 = Human JNK1α1 (Homo sapiens, UniProt P45983); assay: JNK assay in vitro, phosphorylation of GST-ATF2 (19-96) with [γ-33P] ATP, JNK1; type: biochemical; conditions: 2 nM enzyme, 1 μM ATF2, 6 μM ATP, 30° C. for 30 min
Experimental: (§1) JNK activity was measured by phosphorylation of GST-ATF2 (19-96) with [γ-^33P] ATP. The enzyme reaction was conducted at Km concentrations of ATP and the substrate at final volume of 40 μl in buffer containing 25 mM HEPES, pH 7.5, 2 mM dithiothreitol, 150 mM NaCl, 20 mM MgCl2, 0.001% Tween® 20, 0.1% BSA and 10% DMSO. Human JNK2α2 assay contains 1 nM enzyme, 1 μM ATF2, 8 μM ATP with 1 uCi [γ-^33P] ATP. Human JNK1α1 assay contains 2 nM enzyme, 1 μM ATF2, 6 μM ATP with 1 μCi [γ-^33P] ATP. Human JNK3 (Upstate Biotech #14-501M) assay contains 2 nM enzyme, 1 μM ATF2, 4 μM ATP with 1 μCi [γ-^33P] ATP. The enzyme assay was carried out in the presence or absence of several compound concentrations. JNK and compound were pre-incubated for 10 min., followed by initiation of the enzymatic reaction by adding ATP and the substrate. The reaction mixture was incubated at 30° C. for 30 min. At the end of incubation, the reaction was terminated by transferring 25 μl of the reaction mixture to 150 μl of 10% glutathione Sepharose® slurry (Amersham # 27-4574-01) containing 135 mM EDTA. The reaction product was captured on the affinity resin, and washed on a filtration plate (Millipore, MABVNOB50) with phosphate buffered saline for six times to remove free radionucleotide. The incorporation of ^33P into ATF2 was quantified on a microplate scintillation counter (Packard Topcount). Compound inhibition potency on JNK was measured by IC50 value generated from ten concentration inhibition curves fitted into the 3-parameter model: % inhibition=Maximum/(1+(IC50/[Inhibitor])^slope). Data were analyzed on Microsoft Excel for parameter estimation.

Human JNK2α2 = Human JNK2α2 (Homo sapiens, UniProt P45984); assay: JNK assay in vitro, phosphorylation of GST-ATF2 (19-96) with [γ-33P] ATP, JNK2; type: biochemical; conditions: 1 nM enzyme, 1 μM ATF2, 8 μM ATP, 30° C. for 30 min
Human JNK2α2, sequence (P45984 whole entry): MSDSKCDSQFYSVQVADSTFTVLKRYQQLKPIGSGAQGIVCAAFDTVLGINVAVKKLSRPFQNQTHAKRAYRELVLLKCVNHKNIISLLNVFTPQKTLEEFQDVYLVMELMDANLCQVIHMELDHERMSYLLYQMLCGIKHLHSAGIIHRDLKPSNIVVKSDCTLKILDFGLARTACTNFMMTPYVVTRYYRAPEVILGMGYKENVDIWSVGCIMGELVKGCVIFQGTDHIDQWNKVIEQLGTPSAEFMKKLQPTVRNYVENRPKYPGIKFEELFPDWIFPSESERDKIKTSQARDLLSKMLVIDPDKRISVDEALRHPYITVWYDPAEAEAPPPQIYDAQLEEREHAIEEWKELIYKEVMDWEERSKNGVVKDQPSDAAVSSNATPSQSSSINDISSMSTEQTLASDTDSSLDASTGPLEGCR
Experimental: as §1

Human JNK1α1, sequence (P45983 1-384 isoform P45983-2): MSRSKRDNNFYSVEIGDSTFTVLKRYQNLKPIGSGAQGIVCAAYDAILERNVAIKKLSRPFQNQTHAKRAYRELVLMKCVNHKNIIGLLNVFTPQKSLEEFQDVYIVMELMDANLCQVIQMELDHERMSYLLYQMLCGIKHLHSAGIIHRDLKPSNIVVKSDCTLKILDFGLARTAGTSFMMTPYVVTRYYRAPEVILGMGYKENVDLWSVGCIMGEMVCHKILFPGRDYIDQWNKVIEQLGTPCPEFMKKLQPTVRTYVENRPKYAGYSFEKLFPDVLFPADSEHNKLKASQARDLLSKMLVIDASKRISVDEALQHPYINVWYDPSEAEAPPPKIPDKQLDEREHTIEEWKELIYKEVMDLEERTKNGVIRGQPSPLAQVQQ

Structure (SMILES)	IC50 (Human JNK1α1) [nM]	IC50 (Human JNK2α2) [nM]
CC(CCO)n1c(=O)ccc2cnc(NC3CCCCC3)nc21 (stereo not drawn) [Compound 1, 2-Cyclohexylamino-8-(3-hydroxy-1-methyl-propyl)-8H-pyrido[2,3-d]pyrimidin-7-one]	70.1	154
O=c1ccc2cnc(NC3CCCCC3)nc2n1C1CCCC1 [Compound 3, 2-Cyclohexylamino-8-cyclopentyl-8H-pyrido[2,3-d]pyrimidin-7-one]	108	136
CS(=O)(=O)N[C@H]1CC[C@H](Nc2ncc3ccc(=O)n(CCCO)c3n2)CC1 [Compound 5, N-{4-[8-(3-Hydroxy-propyl)-7-oxo-7,8-dihydro-pyrido[2,3-d]pyrimidin-2-ylamino]-cyclohexyl}-methanesulfonamide]	282	778
Cc1cc2cnc(N[C@H]3CC[C@H](O)CC3)nc2n(CCCO)c1=O [Compound 7, 2-(4-Hydroxy-cyclohexylamino)-8-(3-hydroxy-propyl)-6-methyl-8H-pyrido[2,3-d]pyrimidin-7-one]	291	409
CS(=O)(=O)NCCCn1c(=O)ccc2cnc(NC3CCCCC3)nc21 [Compound 9, N-[3-(2-Cyclohexylamino-7-oxo-7H-pyrido[2,3-d]pyrimidin-8-yl)-propyl]-methanesulfonamide]	464	625
Cc1cc2cnc(NC3CCCCC3)nc2n(CCCO)c1=O [Compound 11]	503	713
